Measurements from ChEMBL document CHEMBL5316368, “Di- and Triterpenoids from the Rhizomes of Isodon amethystoides and Their Anti-inflammatory Activities” (J Nat Prod, 2023).
Activity calls are given as the source filed them. The calls are words filed in the database; no cut-off is given here.

Legend:
RAW264.7 [1] = assay: Cytotoxicity against mouse RAW264.7 cells assessed as cell viability by MTT assay; assay type: functional, cell-based
MCF7 = assay: Anticancer activity against human MCF7 cells assessed as inhibition of cell growth incubated for 48 hrs by MTT assay; assay type: functional, cell-based; conditions: MCF7, 48 h
A549 = assay: Anticancer activity against human A549 cells assessed as inhibition of cell growth incubated for 48 hrs by MTT assay; assay type: functional, cell-based; conditions: A549, 48 h
NCI-H1975 = assay: Anticancer activity against human NCI-H1975 cells assessed as inhibition of cell growth incubated for 48 hrs by MTT assay; assay type: functional, cell-based; conditions: NCI-H1975, 48 h
MDA-MB-231 = assay: Anticancer activity against human MDA-MB-231 cells assessed as inhibition of cell growth incubated for 48 hrs by MTT assay; assay type: functional, cell-based; conditions: MDA-MB-231, 48 h
RAW264.7 [2] = assay: Antiinflammatory activity against LPS-stimulated mouse RAW264.7 cells assessed as inhibition of NO production preincubated with compound for 2 hrs followed by LPS stimulation and measured after 24 hrs by Griess reagent based analysis; assay type: functional, cell-based; conditions: dose 10-40 µM, time 26.0 hrs
RAW264.7 [3] = assay: Antiinflammatory activity against LPS-stimulated mouse RAW264.7 cells assessed as suppression of NO secretion at 20 uM preincubated with compound for 2 hrs followed by LPS stimulation and measured after 24 hrs by Griess reagent based assay relative to control; assay type: functional; conditions: time 26 hrs
RAW264.7 [4] = assay: Antiinflammatory activity against LPS-stimulated mouse RAW264.7 cells assessed as downregulation of LPS-induced iNOS expression preincubated with compound for 2 hrs followed by LPS stimulation and measured after 24 hrs by Western blot analysis; assay type: functional, cell-based; conditions: dose 10-40 µM, time 26.0 hrs

CC1(C)CC[C@]2(C(=O)O)CC[C@]3(C)C(=CCC4[C@@]5(C)C[C@@H](O)[C@@H](O)C(C)(C)[C@@H]5CC[C@]43C)C2C1 (stereo partly specified)
Activity (RAW264.7 [1]): inactive

C=C1CC[C@@H]2C(C)(C)[C@H](O)CC[C@@]2(C)C1CCC1=CCOC1=O (stereo partly specified)
Activity (RAW264.7 [1]): inactive

C[C@@H]1CC[C@]2(C(=O)O)CC[C@]3(C)C(=CCC4[C@@]5(C)C[C@@H](O)[C@H](OC(=O)/C=C/c6ccc(O)cc6)C(C)(C)[C@@H]5CC[C@]43C)C2[C@H]1C (stereo partly specified)
Activity (RAW264.7 [1]): inactive

COc1cc2c(cc1C(C)C)CC[C@H]1[C@@](C)(C(=O)O)CCC[C@]21C
Activity (RAW264.7 [1]): inactive

C=C1C(=O)[C@@]23CC[C@@H]4C(C)(C)C(=O)CC[C@@]4(C)[C@@H]2CC[C@@H]1C3
IC50 (MCF7): > 10 µM | IC50 (A549): > 10 µM | IC50 (NCI-H1975): > 10 µM | Activity (RAW264.7 [1]): inactive | IC50 (MDA-MB-231): 8.4 µM

CC1(C)CC[C@]2(C(=O)O)CC[C@]3(C)C(=C2C1)CCC1[C@@]2(C)C[C@@H](O)[C@H](O)C(C)(C)[C@@H]2CC[C@]13C (stereo partly specified)
Activity (RAW264.7 [1]): inactive

C[C@@H]1CC[C@]2(C(=O)O)CC[C@]3(C)C(=CC[C@@H]4[C@@]5(C)C(CO)=CC(C)(C)[C@@H]5CC[C@]43C)[C@@H]2[C@]1(C)O [HYPTASIENIC ACID]
IC50 (MCF7): > 10 µM | IC50 (A549): 7.4 µM | IC50 (NCI-H1975): > 10 µM | Activity (RAW264.7 [1]): inactive | IC50 (MDA-MB-231): > 10 µM

C=C1[C@@H]2CC[C@H]3[C@]4(C)CC[C@@H](O)C(C)(C)[C@H]4C[C@H](OC(C)=O)[C@]3(C2)[C@@H]1O
Activity (RAW264.7 [1]): inactive

CC(C)[C@H]1CC[C@H]2[C@@H](CC[C@H]3C(C)(C)CCC[C@]23C)C1
inhibition (RAW264.7 [2]): Active

C=C1CC[C@@H]2[C@](C)(C(=O)O)CCC[C@@]2(C)C1CCC1=CCOC1=O (stereo partly specified)
Activity (RAW264.7 [1]): inactive

C=C1CC[C@@H]2[C@](C)(CO)CCC[C@@]2(C)C1CCC1=CCOC1=O (stereo partly specified)
Activity (RAW264.7 [1]): inactive

CC1(C)CC[C@]2(C(=O)O)CC[C@]3(C)C(=CCC4[C@@]5(C)C[C@@H](O)[C@H](OC(=O)/C=C/c6ccc(O)cc6)C(C)(C)[C@@H]5CC[C@]43C)C2C1 (stereo partly specified)
Activity (RAW264.7 [1]): inactive

CC(C)c1ccc2c(c1O)CC[C@@H]1[C@@](C)(CO)CCC[C@@]21C
inhibition (RAW264.7 [2]): Dose-Dependent Effect | Activity (RAW264.7 [3]): 94% | Activity (RAW264.7 [4]): Dose-Dependent Effect | Activity (RAW264.7 [1]): inactive

CC(C)c1cc2c(cc1O)C(=O)C[C@H]1[C@@](C)(CO)CCC[C@]21C
inhibition (RAW264.7 [2]): Dose-Dependent Effect | Activity (RAW264.7 [1]): inactive

C=C1C(=O)O[C@H]2C3=CC[C@@H]4C(C)(C)C(=O)CC[C@@]4(C)[C@@H]3CC[C@@H]12
IC50 (MCF7): > 10 µM | IC50 (A549): > 10 µM | IC50 (NCI-H1975): > 10 µM | Activity (RAW264.7 [1]): inactive | IC50 (MDA-MB-231): 7.3 µM

CC(C)c1cc2c(cc1O)[C@@]1(C)CCC[C@](C)(CO)[C@@H]1CC2
inhibition (RAW264.7 [2]): Dose-Dependent Effect

CC(C)[C@@]1(O)CCC2=C(C1)C(=O)C[C@H]1C(C)(C)CC[C@H](O)[C@]21C
inhibition (RAW264.7 [2]): Dose-Dependent Effect | Activity (RAW264.7 [1]): inactive

COc1cc(/C=C/C(=O)O[C@H]2[C@H](O)C[C@]3(C)C4CC=C5C6CC(C)(C)CC[C@]6(C(=O)O)CC[C@@]5(C)[C@]4(C)CC[C@H]3C2(C)C)ccc1O (stereo partly specified)
Activity (RAW264.7 [1]): inactive

C[C@@H]1CC[C@]2(C(=O)O)CC[C@]3(C)C(=CCC4[C@@]5(C)C[C@@H](O)OCC(C)(C)C5CC[C@]43C)C2[C@]1(C)O (stereo partly specified)
Activity (RAW264.7 [1]): inactive

CC(C)c1c(O)ccc2c1CC[C@H]1C(C)(C)C(=O)CC[C@]21C
inhibition (RAW264.7 [2]): Dose-Dependent Effect | Activity (RAW264.7 [1]): inactive

CC(C)c1cc2c(cc1O)[C@@]1(C)CCCC(C)(C)[C@@H]1CC2=O
Activity (RAW264.7 [1]): inactive

CC(C)c1cc2c(cc1O)CC[C@H]1[C@](C)(CO)CCC[C@]21C
inhibition (RAW264.7 [2]): Dose-Dependent Effect | Activity (RAW264.7 [4]): Dose-Dependent Effect | Activity (RAW264.7 [1]): inactive

CC(=O)O[C@H]1C(=O)[C@@]2(C)[C@H]([C@H](OC(=O)c3ccccc3)[C@]3(O)C[C@H](OC(=O)[C@H](O)[C@@H](NC(=O)c4ccccc4)c4ccccc4)C(C)=C1C3(C)C)[C@]1(OC(C)=O)CO[C@@H]1C[C@@H]2O [PACLITAXEL]
IC50 (A549): 0.018 µM | IC50 (NCI-H1975): 0.028 µM | IC50 (MDA-MB-231): 0.03 µM

CC(=O)[C@@H](C)CC[C@@]1(C(=O)O)C=C2C=CC3[C@@]4(C)C(C(=O)O)=CC(C)(C)[C@@H]4CC[C@@]3(C)[C@]2(C)CC1 (stereo partly specified)
Activity (RAW264.7 [1]): inactive

CC(C)c1cc2c(cc1O)[C@@]1(C)CC[C@H](O)C(C)(C)[C@@H]1CC2
Activity (RAW264.7 [1]): inactive

CC(C)c1c(O)ccc2c1CC[C@H]1C(C)(C)[C@@H](O)CC[C@]21C
Activity (RAW264.7 [1]): inactive

CC1(C)CC[C@]2(C(=O)O)CC[C@]3(C)C(=CC[C@@H]4[C@@]5(C)C[C@@H](O)[C@H](O)C(C)(C)[C@@H]5CC[C@]43C)[C@@H]2C1
Activity (RAW264.7 [1]): inactive

C=C1[C@@H]2CC[C@H]3[C@]4(C)CC[C@@H](O)C(C)(C)[C@H]4C[C@@H](O)[C@]3(C2)[C@@H]1O
Activity (RAW264.7 [1]): inactive

CC1(C)CC[C@]2(C(=O)O)CC[C@]3(C)C(=C2C1)C=CC1[C@@]2(C)C[C@@H](O)[C@H](O)C(C)(C)[C@@H]2CC[C@]13C (stereo partly specified)
Activity (RAW264.7 [1]): inactive

C=C1[C@@H]2CC[C@H]3[C@]4(C)CCC[C@](C)(CO)[C@H]4C[C@H](O)[C@]3(C2)[C@@H]1O
Activity (RAW264.7 [1]): inactive

C=C1C(=O)[C@]23C[C@H]1CC[C@H]2[C@]1(C)CC[C@@H](O)C(C)(C)[C@H]1C[C@@H]3OC(C)=O
IC50 (MCF7): 7.4 µM | IC50 (A549): 4.7 µM | IC50 (NCI-H1975): 6.3 µM | Activity (RAW264.7 [1]): inactive | IC50 (MDA-MB-231): 6.6 µM

CC(C)c1c(O)ccc2c1CC[C@H]1[C@@](C)(C(=O)O)CCC[C@]21C
inhibition (RAW264.7 [2]): Dose-Dependent Effect | Activity (RAW264.7 [1]): inactive

CC(C)c1cc2c(cc1O)CC[C@H]1C(C)(C)[C@@H](O)CC[C@]21C
inhibition (RAW264.7 [2]): Dose-Dependent Effect | Activity (RAW264.7 [3]): 91% | Activity (RAW264.7 [4]): Dose-Dependent Effect | Activity (RAW264.7 [1]): inactive

CC(C)c1cc2c(cc1O)C(=O)C[C@H]1C(C)(C)CCC[C@]21C
inhibition (RAW264.7 [2]): Dose-Dependent Effect | Activity (RAW264.7 [3]): 86% | Activity (RAW264.7 [4]): Dose-Dependent Effect | Activity (RAW264.7 [1]): inactive

CC(C)C(=O)OC1=C[C@@]2(CO)C(CC[C@]3(C)C2CC=C2C4[C@](C(=O)O)(CC[C@@H](C)[C@@]4(C)O)CC[C@]23C)C(C)(C)C1 (stereo partly specified)
Activity (RAW264.7 [1]): inactive

CC(C)c1cc2c(cc1O)[C@@]1(C)CCC[C@](C)(CO)[C@@H]1C=C2
Activity (RAW264.7 [1]): inactive

CC(C)c1cc2c(cc1O)[C@@]1(C)CC[C@H](O)[C@](C)(C=O)[C@@H]1CC2
Activity (RAW264.7 [3]): 95% | Activity (RAW264.7 [1]): inactive
